Experimental data from patent US5580552A, “7-glycosyloxybenzopyran derivative and antiallergic agent containing the derivative as active ingredient” (priority 1994, dated 1996).

Columns and labels:
[1] = test system: homologous passive cutaneous anaphylaxis (PCA) reaction; test: Effect on homologous passive cutaneous anaphylaxis (PCA) reaction in rats; type: in vivo, rats (male wistar); conditions: 50 mg/kg oral, 1 hour before challenge (TABLE 2); for inhibition in vivo at 50 mg/kg: Rattus norvegicus, po, 0.5 h
Description: Effect on homologous passive cutaneous anaphylaxis (PCA) reaction in rats.
This experimental animal model is caused by immediate type allergic reaction namely, antigen-antibody reaction. In the following, the method of this pharmacological test will be explained.
Method: Male wistar rats (9 weeks old) were intradermally administered 0.05 ml of anti-serum against dinitrophenylated ascaris (DNP-As) into two sites on the shaved dorsal skin. 48 hours later, 7-glycosyloxybenzopyran derivatives (test compounds) suspended in 0.5% sodium carboxymethylcellulose (CMCNa) were given orally at a dose of 50 mg/kg to the animals. One hour after administration of Test compounds, the animals were induced anaphylaxis by injection of saline (1 ml) dissolving 5 mg of Evans Blue and 1 mg of Trinitrophenylated ascaris (TNP-As) into the tail vein of the animals. 30 minutes after induction of anaphylaxis, animals were anesthetized by ether and killed by bleeding, and were flayed dorsal skin. The determination of extravasated dye was performed according to the method of Katayama et al. (Microbiol. Immunol., Vol.22, P 89-101, 1978). As vehicle control group, only 0.5% CMCNa solution was administered orally, and as positive control group, Tranilast suspended in 0.5% CMCNa was administered orally at a dose of 100 mg/kg to the animals with the same method as the test compounds groups. Each experimental group consisted of 5 rats. [formula]

[2] = test system: contact dermatitis induced by picryl chloride; test: Effect on contact dermatitis induced by picryl chloride in mice; type: in vivo; conditions: 50 mg/kg oral, 1 hour before and 16 hours after challenge, 24 hours after challenge; for inhibition in vivo at 50 mg/kg: Mus musculus, po, 24 h, read-out: Inhibition (%) against the increase of ear thickness
Description: Effect on contact dermatitis induced by picryl chloride in mice
The delayed type hypersensitization is inhibited by steroid drugs,but can not be effected by known anti-allergic agents. In the following, the method of the pharmacological test will be explained.
Method: Mice, shaved their abdominal skin on previous day, were immunized by applying 0.1 ml of acetone containing 7 mg of picryl chloride to the skin of the abdomen. 7 days after immunization, the thickness of the ear was measured with a dial thickness gauge, then mice were challenged by painting 5 μl of 1% picryl chloride olive oil solution to each side skin of left ear. 24 hours after challenge, the thickness of the left ear was measured again and the increase (%) of thickness was calculated according to equation 2. The compounds of the present invention (test compounds) suspended in 0.5% CMCNa were forcibly administered orally at a dose of 50 mg/kg at 1 hour before and 16 hours after challenge. As vehicle control group, only 0.5% CMCNa solution were administered orally, and as positive control group, Prednisolone, steroid hormone, and Tranilast were administered orally at the doses of 10 mg/kg and 100 mg/kg, respectively.
Increase (%)=(A-B)/B×100 (Equation 2)
A: thickness of the ear at 24 hours after challenge
B: thickness of the ear before challenge
Inhibition (%)=(C-D)/C×100 (equation 3)
C: The increase (%) in vehicle control group
D: The increase (%) in test compounds group or positive control group

[3] = test system: experimental asthma model (airway resistance); test: Effect on experimental asthma model in guinea pigs (airway resistance); type: in vivo, guinea pigs (male hartley); conditions: 50 mg/kg oral (TABLE 6); for inhibition in vivo at 50 mg/kg: Cavia porcellus, po, 0.5 h
Description: Effect on experimental asthma model in guinea pigs
The asthma is typical allergic disease and we carried out this pharmacological test by well known experimental asthma model in guinea pigs in order to comfirm that the compounds of the present invention suppress the asthma. In the following, the method of the pharmacological test will be explained.
Method: Male hartley guinea pigs were immunized by intraperitoneal injection of saline (1ml) containing 5 mg of ovalbumine (OVA) three times at interval of one week. 2 weeks after final immunization, the animals were challenged by inhalation of 1% OVA-saline solution for 1 minute and then the airway resistance of the animals were measured for 30 minutes with PULMOS-1 (Medical Interface Project Station Inc.) after the inhalation. The compounds of the present invention (test compounds) suspended in 0.5% CMCNa were given orally at a dose of 50 mg/kg. As positive control group, Disodium Cromoglicate (DSCG), well known anti-allergic agent, in saline were injected at a dose of 20 mg/kg into the vein of the animals. As vehicle control group, only 0.5% CMCNa solution were given orally. The inhibition (%) of the airway resistance in vehicle control group was calculated according to equation 5 and the result was shown in TABLE 6. Each experimental group consisted of 5 guinea pigs. [formula]
A: Maximum airway resistance in vehicle control group
B: Maximum airway resistance in test compounds group or positive control group

SMILES | inhibition in vivo at 50 mg/kg [1] [%] | inhibition in vivo at 50 mg/kg [2] [%] | inhibition in vivo at 50 mg/kg [3] [%] | Inhibition (%) of PCA reaction [1] [%] | Inhibition (%) against the increase of ear thickness [2] [%] | Inhibition (%) of the airway resistance [3] [%]
O=c1oc2cc(O[C@@H]3O[C@H](CO)[C@@H](O)[C@H](O)[C@H]3O)ccc2c(OCc2ccccc2)c1O [compound 152] | 41.3 | 43.2 | 52.4 | – | – | –
CC(C)Oc1c(O)c(=O)oc2cc(O[C@@H]3O[C@H](CO)[C@@H](O)[C@H](O)[C@H]3O)ccc12 [compound 113] | 40.3 | 45.5 | 56.6 | – | – | –
CCCCOc1c(OC(=O)CC)c(=O)oc2cc(O[C@@H]3O[C@H](COC(C)=O)[C@@H](OC(C)=O)[C@H](OC(C)=O)[C@H]3OC(C)=O)ccc12 [compound 99] | 40.2 | 40.3 | 39.2 | – | – | –
CC(C)Oc1c(O)c2ccc(O[C@@H]3O[C@H](CO)[C@H](O)[C@H](O)[C@H]3O)cc2oc1=O [compound 91] | 55.5 | 59.3 | 69.5 | – | – | –
C=COc1c(O)c2ccc(O[C@@H]3O[C@H](CO)[C@H](O)[C@H](O)[C@H]3O)cc2oc1=O [compound 93] | 55.2 | 56.4 | 69.7 | – | – | –
CCCCCCOc1c(O)c2ccc(O[C@@H]3O[C@H](CO)[C@@H](O)[C@H](O)[C@H]3O)cc2oc1=O [compound 38] | 59.3 | 63.7 | 75.5 | – | – | –
O=c1oc2cc(O[C@@H]3O[C@H](CO)[C@H](O)[C@H](O)[C@H]3O)ccc2c(O)c1OCc1ccccc1 [compound 96] | 50.1 | 48.9 | 58.2 | – | – | –
CCCCCCCCOc1c(O)c2ccc(O[C@H]3O[C@H](CO)[C@@H](O)[C@H](O)[C@@H]3O)cc2oc1=O [compound 64] | 54.9 | 52.6 | 57.2 | – | – | –
COc1c(O)c2ccc(O[C@@H]3O[C@H](CO)[C@H](O)[C@H](O)[C@H]3O)cc2oc1=O [compound 9, 3-methoxy-4-hydroxy-7-(β-D-galactopyranosyloxy)-2H-1-benzopyran-2-one] | 54.5 | 52.1 | 60.3 | – | – | –
CC1CCC(Oc2c(O)c3ccc(O[C@H]4O[C@H](CO)[C@@H](O)[C@H](O)[C@@H]4O)cc3oc2=O)CC1 (stereo partly drawn) [compound 68] | 49.5 | 47.3 | 63.5 | – | – | –
CC1CCC(Oc2c(O)c(=O)oc3cc(O[C@H]4O[C@H](CO)[C@@H](O)[C@H](O)[C@@H]4O)ccc23)CC1 (stereo partly drawn) [compound 136] | 42.2 | 41.2 | 51.2 | – | – | –
COc1c(O)c(=O)oc2cc(O[C@@H]3O[C@H](CO)[C@@H](O)[C@H](O)[C@H]3O)ccc12 [compound 109] | 42.1 | 43.8 | 53.1 | – | – | –
CCCCCCCCCCCCOc1c(O)c(=O)oc2cc(O[C@@H]3O[C@H](CO)[C@@H](O)[C@H](O)[C@H]3O)ccc12 [compound 155] | – | – | – | 42.9 | 40.9 | 57.6
CCC=CCCOc1c(O)c(=O)oc2cc(O[C@H]3O[C@H](CO)[C@@H](O)[C@H](O)[C@@H]3O)ccc12 [compound 138] | 42.5 | 44.7 | 50.8 | – | – | –
CCCCCCCCOc1c(OC(C)=O)c(=O)oc2cc(O[C@@H]3O[C@H](COC(C)=O)[C@@H](OC(C)=O)[C@H](OC(C)=O)[C@H]3OC(C)=O)ccc12 [compound 16, 3-acetoxy-4-octyloxy-7-(tetra-O-acetyl-β-D-glucopyranosyloxy)-2H-1-benzopyran-2-one] | 42.3 | 43.5 | 40.2 | – | – | –
CCC=CCCOc1c(O)c(=O)oc2cc(O[C@@H]3O[C@H](CO)[C@@H](O)[C@H](O)[C@H]3O)ccc12 [compound 116] | 46.1 | 44.4 | 62.8 | – | – | –
CCCCCCOc1c(O)c(=O)oc2cc(O[C@H]3O[C@H](CO)[C@@H](O)[C@H](O)[C@@H]3O)ccc12 [compound 20, 3-hydroxy-4-hexyloxy-7-(α-D-mannopyranosyloxy)-2H-1-benzopyran-2-one] | 42.3 | 45.2 | 55.4 | – | – | –
C=COc1c(O)c(=O)oc2cc(O[C@@H]3O[C@H](CO)[C@@H](O)[C@H](O)[C@H]3O)ccc12 [compound 115] | 42.2 | 40.2 | 53.1 | – | – | –
C=COc1c(O)c(=O)oc2cc(O[C@@H]3O[C@H](CO)[C@@H](O)[C@H](O)[C@H]3O)ccc12 [compound 158] | – | – | – | 44.3 | 48.2 | 42.3
CCCCCCCCCCCCOc1c(O)c2ccc(O[C@H]3O[C@H](CO)[C@@H](O)[C@H](O)[C@@H]3O)cc2oc1=O [compound 66] | 49.3 | 51.4 | 54.3 | – | – | –
CCCCCCOc1c(OC(C)=O)c(=O)oc2cc(O[C@@H]3O[C@H](COC(C)=O)[C@H](OC(C)=O)[C@H](OC(C)=O)[C@H]3OC(C)=O)ccc12 [compound 15, 3-acetoxy-4-hexyloxy-7-(tetra-O-acetyl-β-D-galactopyranosyloxy)-2H-1-benzopyran-2-one] | 40.1 | 41.2 | 42.1 | – | – | –
CCC=CCCOc1c(O)c2ccc(O[C@@H]3O[C@H](CO)[C@@H](O)[C@H](O)[C@H]3O)cc2oc1=O [compound 45] | 55.2 | 54.2 | 62.3 | – | – | –
CCCCCCCCCCCCOc1c(O)c(=O)oc2cc(O[C@@H]3O[C@H](CO)[C@@H](O)[C@H](O)[C@H]3O)ccc12 [compound 112] | 44.5 | 43.3 | 57.2 | – | – | –
CCCCCCCCCCOc1c(O)c(=O)oc2cc(O[C@@H]3O[C@H](CO)[C@@H](O)[C@H](O)[C@H]3O)ccc12 [compound 111] | 43.1 | 41.2 | 61.3 | – | – | –
O=c1oc2cc(O[C@@H]3O[C@H](CO)[C@@H](O)[C@H](O)[C@H]3O)ccc2c(O)c1O [compound 151] | – | – | – | 45.4 | 46.5 | 49.7
CCCCCCCCOc1c(O)c(=O)oc2cc(O[C@@H]3O[C@H](CO)[C@H](O)[C@H](O)[C@H]3O)ccc12 [compound 23, 3-hydroxy-4-octyloxy-7-(β-D-galactopyranosyloxy)-2H-1-benzopyran-2-one] | 44.7 | 49.3 | 61.5 | – | – | –
